Test results published in PubChem BioAssay (NCI).
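Cells were grown in 96-well plates and exposed to each compound for 48 hours at five concentrations; endpoints were interpolated linearly between bracketing concentrations, or set to the highest concentration if not reached. At the GI50, growth is halved. At the TGI there is no net growth.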

Columns and labels:
Assay in all cases: growth of human tumour cells (NCI), 48 h
TK-10 renal = tested on: TK-10 renal
SNB-75 CNS = tested on: SNB-75 CNS
A498 renal = tested on: A498 renal
EKVX NSCLC = tested on: EKVX NSCLC
OVCAR-5 ovarian = tested on: OVCAR-5 ovarian
SK-MEL-2 melanoma = tested on: SK-MEL-2 melanoma
SR leukemia = tested on: SR leukemia
SN12C renal = tested on: SN12C renal
OVCAR-8 ovarian = tested on: OVCAR-8 ovarian
SF-295 CNS = tested on: SF-295 CNS
OVCAR-3 ovarian = tested on: OVCAR-3 ovarian
M14 melanoma = tested on: M14 melanoma
HT29 colon = tested on: HT29 colon
MOLT-4 leukemia = tested on: MOLT-4 leukemia
HL-60(TB) leukemia = tested on: HL-60(TB) leukemia
NCI-H226 lung = tested on: NCI-H226 lung
MDA-MB-231 breast = tested on: MDA-MB-231 breast
UACC-62 melanoma = tested on: UACC-62 melanoma
SF-268 CNS = tested on: SF-268 CNS
K-562 leukemia = tested on: K-562 leukemia
HCT-15 colon = tested on: HCT-15 colon
MDA-MB-435 = tested on: MDA-MB-435
NCI-H460 lung = tested on: NCI-H460 lung
SF-539 CNS = tested on: SF-539 CNS
U251 CNS = tested on: U251 CNS
CAKI-1 renal = tested on: CAKI-1 renal
A549 NSCLC = tested on: A549 NSCLC
UO-31 renal = tested on: UO-31 renal
MCF7 breast = tested on: MCF7 breast
IGROV1 ovarian = tested on: IGROV1 ovarian
LOX IMVI melanoma = tested on: LOX IMVI melanoma
HCC-2998 colon = tested on: HCC-2998 colon
SK-MEL-5 melanoma = tested on: SK-MEL-5 melanoma
T-47D breast = tested on: T-47D breast
BT-549 breast = tested on: BT-549 breast
PC-3 prostate = tested on: PC-3 prostate
COLO 205 colon = tested on: COLO 205 colon
HS 578T breast = tested on: HS 578T breast
MALME-3M melanoma = tested on: MALME-3M melanoma
KM12 colon = tested on: KM12 colon
RXF 393 renal = tested on: RXF 393 renal
SK-MEL-28 melanoma = tested on: SK-MEL-28 melanoma
NCI-H522 lung = tested on: NCI-H522 lung
ACHN renal = tested on: ACHN renal
NCI-H23 lung = tested on: NCI-H23 lung
HOP-92 NSCLC = tested on: HOP-92 NSCLC
MDA-MB-468 breast = tested on: MDA-MB-468 breast
RPMI-8226 leukemia = tested on: RPMI-8226 leukemia
CCRF-CEM leukemia = tested on: CCRF-CEM leukemia
UACC-257 melanoma = tested on: UACC-257 melanoma
HOP-62 NSCLC = tested on: HOP-62 NSCLC
786-0 renal = tested on: 786-0 renal
OVCAR-4 ovarian = tested on: OVCAR-4 ovarian
SW-620 colon = tested on: SW-620 colon
SNB-19 CNS = tested on: SNB-19 CNS
SK-OV-3 ovarian = tested on: SK-OV-3 ovarian
HCT-116 colon = tested on: HCT-116 colon
DU-145 prostate = tested on: DU-145 prostate

`O=c1cc(-c2ccccc2)oc2cc(OCCCNCc3ccccc3)cc(O)c12` gave a GI50 (TK-10 renal) of 14.8 µM, a TGI (TK-10 renal) of 28.8 µM and a GI50 (SNB-75 CNS) of 2.4 µM. It also gave a TGI (SNB-75 CNS) of 16.5 µM, a GI50 (A498 renal) of 3.94 µM and a TGI (A498 renal) of 16.9 µM. It also gave a GI50 (EKVX NSCLC) of 13.8 µM, a TGI (EKVX NSCLC) of 36.4 µM and a GI50 (OVCAR-5 ovarian) of 10 µM. For the same molecule, the TGI (OVCAR-5 ovarian) was 22.9 µM, the GI50 (SK-MEL-2 melanoma) was 6.43 µM and the TGI (SK-MEL-2 melanoma) was 19.7 µM. It also gave a GI50 (SR leukemia) of 2.91 µM, a TGI (SR leukemia) greater than 100 µM and a GI50 (SN12C renal) of 4.19 µM. For the same molecule, the TGI (SN12C renal) was 24.6 µM, the GI50 (OVCAR-8 ovarian) was 10.2 µM and the TGI (OVCAR-8 ovarian) was greater than 100 µM. The GI50 (SF-295 CNS) was 4.72 µM, the TGI (SF-295 CNS) was 18 µM and the GI50 (OVCAR-3 ovarian) was 10 µM. It also gave a TGI (OVCAR-3 ovarian) of 23.7 µM, a GI50 (M14 melanoma) of 2.64 µM and a TGI (M14 melanoma) of 6.88 µM. For the same molecule, the GI50 (HT29 colon) was 3.15 µM, the TGI (HT29 colon) was 27.3 µM and the GI50 (MOLT-4 leukemia) was 3.53 µM. The TGI (MOLT-4 leukemia) was greater than 100 µM, the GI50 (HL-60(TB) leukemia) was 1.89 µM and the TGI (HL-60(TB) leukemia) was 5.03 µM. It also gave a GI50 (NCI-H226 lung) of 11.1 µM, a TGI (NCI-H226 lung) of 41.9 µM and a GI50 (MDA-MB-231 breast) of 2.89 µM. The TGI (MDA-MB-231 breast) was 12.9 µM, the GI50 (UACC-62 melanoma) was 1.77 µM and the TGI (UACC-62 melanoma) was 3.49 µM. It also gave a GI50 (SF-268 CNS) of 4.81 µM, a TGI (SF-268 CNS) of 30.3 µM and a GI50 (K-562 leukemia) of 3.16 µM. For the same molecule, the TGI (K-562 leukemia) was greater than 100 µM, the GI50 (HCT-15 colon) was 3.54 µM and the TGI (HCT-15 colon) was 13.1 µM. It also gave a GI50 (MDA-MB-435) of 10.1 µM, a TGI (MDA-MB-435) of 21.7 µM and a GI50 (NCI-H460 lung) of 4.15 µM. For the same molecule, the TGI (NCI-H460 lung) was 20.8 µM, the GI50 (SF-539 CNS) was 5.64 µM and the TGI (SF-539 CNS) was 18.7 µM. The GI50 (U251 CNS) was 3.69 µM, the TGI (U251 CNS) was 19.1 µM and the GI50 (CAKI-1 renal) was 2.41 µM. The TGI (CAKI-1 renal) was 11 µM, the GI50 (A549 NSCLC) was 4.33 µM and the TGI (A549 NSCLC) was 46.4 µM. The GI50 (UO-31 renal) was 1.15 µM, the TGI (UO-31 renal) was 8.66 µM and the GI50 (MCF7 breast) was 2.61 µM. It also gave a TGI (MCF7 breast) of 10.3 µM, a GI50 (IGROV1 ovarian) of 3.37 µM and a TGI (IGROV1 ovarian) of 15.7 µM. It also gave a GI50 (LOX IMVI melanoma) of 1.84 µM, a TGI (LOX IMVI melanoma) of 3.92 µM and a GI50 (HCC-2998 colon) of 1.91 µM. For the same molecule, the TGI (HCC-2998 colon) was 3.64 µM, the GI50 (SK-MEL-5 melanoma) was 5.04 µM and the TGI (SK-MEL-5 melanoma) was 16.9 µM. It also gave a GI50 (T-47D breast) of 2.81 µM, a TGI (T-47D breast) of 8.68 µM and a GI50 (BT-549 breast) of 8.5 µM. The TGI (BT-549 breast) was 22.2 µM, the GI50 (PC-3 prostate) was 5.05 µM and the TGI (PC-3 prostate) was 32.4 µM. The GI50 (COLO 205 colon) was 1.98 µM, the TGI (COLO 205 colon) was 3.82 µM and the GI50 (HS 578T breast) was 4.08 µM. The TGI (HS 578T breast) was 33.7 µM, the GI50 (MALME-3M melanoma) was 1.53 µM and the TGI (MALME-3M melanoma) was 3.2 µM. For the same molecule, the GI50 (KM12 colon) was 3.77 µM, the TGI (KM12 colon) was 14.5 µM and the GI50 (RXF 393 renal) was 1.97 µM. The TGI (RXF 393 renal) was 8.11 µM, the GI50 (SK-MEL-28 melanoma) was 2.31 µM and the TGI (SK-MEL-28 melanoma) was 5.39 µM. It also gave a GI50 (NCI-H522 lung) of 6.21 µM, a TGI (NCI-H522 lung) of 26.2 µM and a GI50 (ACHN renal) of 3.42 µM. For the same molecule, the TGI (ACHN renal) was 14.2 µM, the GI50 (NCI-H23 lung) was 11.9 µM and the TGI (NCI-H23 lung) was 26.3 µM. It also gave a GI50 (HOP-92 NSCLC) of 1.56 µM, a TGI (HOP-92 NSCLC) of 17.1 µM and a GI50 (MDA-MB-468 breast) of 2.08 µM. The TGI (MDA-MB-468 breast) was 5.21 µM, the GI50 (RPMI-8226 leukemia) was 3.46 µM and the TGI (RPMI-8226 leukemia) was greater than 100 µM. For the same molecule, the GI50 (CCRF-CEM leukemia) was 5.29 µM, the TGI (CCRF-CEM leukemia) was greater than 100 µM and the GI50 (UACC-257 melanoma) was 2.13 µM. For the same molecule, the TGI (UACC-257 melanoma) was 5.1 µM, the GI50 (HOP-62 NSCLC) was 11.5 µM and the TGI (HOP-62 NSCLC) was 44.4 µM. The GI50 (786-0 renal) was 2.98 µM, the TGI (786-0 renal) was 15.5 µM and the GI50 (OVCAR-4 ovarian) was 2.78 µM. It also gave a TGI (OVCAR-4 ovarian) of 8.84 µM, a GI50 (SW-620 colon) of 5.98 µM and a TGI (SW-620 colon) of 21.1 µM. For the same molecule, the GI50 (SNB-19 CNS) was 10.4 µM, the TGI (SNB-19 CNS) was 31.2 µM and the GI50 (SK-OV-3 ovarian) was 10.2 µM. The TGI (SK-OV-3 ovarian) was 22.6 µM, the GI50 (HCT-116 colon) was 3.72 µM and the TGI (HCT-116 colon) was 27.7 µM. The GI50 (DU-145 prostate) was 7.59 µM and the TGI (DU-145 prostate) was 20.4 µM.
